Reference: publication PMC11721313, “Sustained inhibition of CSF1R signaling augments antitumor immunity through inhibiting tumor-associated macrophages” (JCI Insight, 2025)

Legend:
Type in all cases: cell-based
[1] = molecular target: CSF1R (colony-stimulating factor 1 receptor) (Homo sapiens, UniProt P07333); experiment: Western blot of M-CSF-induced CSF1R phosphorylation in human monocyte-derived macrophages
[2] = molecular target: T1, CSF1R (colony-stimulating factor 1 receptor) (Mus musculus, UniProt P09581); experiment: Western blot of M-CSF-induced CSF1R phosphorylation in murine BMDMs and RAW264 cells; inhibition persists after drug washout
T1 sequence (P09581 20-977): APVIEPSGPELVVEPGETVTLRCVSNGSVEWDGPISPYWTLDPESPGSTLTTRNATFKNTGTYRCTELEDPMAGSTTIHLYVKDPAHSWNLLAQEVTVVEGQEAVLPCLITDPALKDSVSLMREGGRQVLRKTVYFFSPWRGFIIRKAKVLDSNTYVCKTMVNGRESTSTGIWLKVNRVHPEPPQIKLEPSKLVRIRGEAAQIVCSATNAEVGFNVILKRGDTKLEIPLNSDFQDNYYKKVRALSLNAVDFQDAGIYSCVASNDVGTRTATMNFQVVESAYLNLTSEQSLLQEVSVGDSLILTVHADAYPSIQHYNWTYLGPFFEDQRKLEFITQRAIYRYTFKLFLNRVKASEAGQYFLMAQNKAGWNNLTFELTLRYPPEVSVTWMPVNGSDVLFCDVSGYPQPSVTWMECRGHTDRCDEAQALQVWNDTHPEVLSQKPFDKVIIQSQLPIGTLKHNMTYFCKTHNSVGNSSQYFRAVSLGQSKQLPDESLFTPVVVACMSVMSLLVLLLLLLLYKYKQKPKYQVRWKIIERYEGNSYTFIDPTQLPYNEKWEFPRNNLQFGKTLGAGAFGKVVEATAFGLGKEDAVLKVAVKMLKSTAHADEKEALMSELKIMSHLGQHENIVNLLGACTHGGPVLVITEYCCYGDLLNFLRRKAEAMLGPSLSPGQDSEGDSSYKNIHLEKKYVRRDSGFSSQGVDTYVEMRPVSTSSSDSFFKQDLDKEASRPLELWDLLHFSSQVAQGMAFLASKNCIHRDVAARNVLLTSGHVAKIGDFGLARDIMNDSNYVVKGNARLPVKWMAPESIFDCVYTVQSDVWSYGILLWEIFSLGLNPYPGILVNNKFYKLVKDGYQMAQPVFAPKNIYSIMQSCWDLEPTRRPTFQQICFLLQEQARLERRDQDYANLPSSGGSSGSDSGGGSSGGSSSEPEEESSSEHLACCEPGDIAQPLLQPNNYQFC

[3] = molecular target: T1, CSF1R (colony-stimulating factor 1 receptor); experiment: Western blot of CSF1R signaling in RAW264 cells with and without drug removal (reference CSF1R inhibitor)

Sequence of CSF1R (colony-stimulating factor 1 receptor) (Homo sapiens, UniProt P07333) (P07333 20-972): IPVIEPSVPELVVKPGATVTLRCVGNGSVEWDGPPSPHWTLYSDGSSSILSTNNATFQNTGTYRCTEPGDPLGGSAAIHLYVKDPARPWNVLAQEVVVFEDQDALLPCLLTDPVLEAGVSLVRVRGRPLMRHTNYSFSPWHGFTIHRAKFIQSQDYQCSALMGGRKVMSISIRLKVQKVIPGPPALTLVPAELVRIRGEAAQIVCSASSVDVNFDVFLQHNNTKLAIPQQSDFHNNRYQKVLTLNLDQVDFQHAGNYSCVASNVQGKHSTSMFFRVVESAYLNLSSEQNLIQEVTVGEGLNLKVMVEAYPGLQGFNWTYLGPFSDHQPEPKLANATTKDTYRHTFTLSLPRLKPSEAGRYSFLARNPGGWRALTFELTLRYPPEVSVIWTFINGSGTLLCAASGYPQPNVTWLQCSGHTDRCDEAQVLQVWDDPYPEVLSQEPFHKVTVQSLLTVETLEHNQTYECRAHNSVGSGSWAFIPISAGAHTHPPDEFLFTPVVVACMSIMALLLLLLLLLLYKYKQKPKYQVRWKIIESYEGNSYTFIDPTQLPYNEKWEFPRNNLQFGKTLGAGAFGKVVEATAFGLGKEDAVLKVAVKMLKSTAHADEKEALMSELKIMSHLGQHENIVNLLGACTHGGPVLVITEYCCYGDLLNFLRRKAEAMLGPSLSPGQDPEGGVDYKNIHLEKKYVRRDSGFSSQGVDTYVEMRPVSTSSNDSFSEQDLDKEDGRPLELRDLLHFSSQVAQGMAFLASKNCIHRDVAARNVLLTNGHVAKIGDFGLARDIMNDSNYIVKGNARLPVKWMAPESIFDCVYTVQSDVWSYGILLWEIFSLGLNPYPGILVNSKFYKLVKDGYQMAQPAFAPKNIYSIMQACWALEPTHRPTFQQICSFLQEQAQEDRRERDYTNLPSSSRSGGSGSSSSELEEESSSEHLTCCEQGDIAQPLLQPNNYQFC

Row | Structure (SMILES) | Western blot of M-CSF-induced CSF1R phosphorylation in human monocyte-derived ma [1] | Western blot of M-CSF-induced CSF1R phosphorylation in murine BMDMs and RAW264 c [2] | Western blot of CSF1R signaling in RAW264 cells with and without drug removal (r) [3]
1 | CCCNc1nc(Nc2ccc(C#N)cc2)ncc1C#CCCCNC(=O)[C@H](C)N(C)C(=O)/C=C/CN(C)C [FF-10101] | human monocyte-derived macrophages upon reexposure to M-CSF was markedly inhibited by FF-10101 in a dose-dependent manner | upon reexposure to M-CSF was markedly inhibited by FF-10101 in a dose-dependent manner | –
2 | CNC(=O)c1cc(Oc2ccc3nc(N[C@@H]4CCCC[C@H]4O)sc3c2)ccn1 [BLZ945] | – | – | the inhibitory activity of BLZ945, another CSF1R inhibitor with an IC50 comparable to that of FF-10101, decreased upon drug removal
